Assays:
[1] = system: mutated and amplified genes (ctDNA) in blood; experiment: Molecular response by repeated Guardant 360 tests (ctDNA in blood); type: in vivo, human; conditions: individual patients; genes named in the cited cell or block
Method: Molecular response was determined by repeated Guardant 360 tests. […] Herein, blood samples were collected from patients and provided to Guardant for panel testing wherein a “panel” was defined as five or more ctDNA genes or gene mutation variants tested on the same day on the same member by the same rendering provider (i.e., Guardant).

Solubility in water = type: physicochemical
[2] = system: Uncommon Cancers (Neoplastic Disorders); experiment: Patients with uncommon cancers treated with AS2-1 in combination with other drugs: response and survival; type: in vivo, human; conditions: GIST patient, before the combination of AS and sunitinib
Method: Patients diagnosed with 34 types of terminal cancer were treated with Antineoplaston AS2-1 (AS) therapy to reduce and/or abolish tumors and other signs of cancer and reduce and/or abolish expression of cancer-causing genes. In brief, patients admitted for treatment herein were diagnosed with terminal, Stage IV, cancers of varying types with multiple metastases and had failed standard-of-care regimens, except for a small number of patients who were treatment naive, but were not candidates for standard treatment because of very advanced disease and less than 6 months life expectancy. The estimated survival for these patients was from less than one to less than 6 months. The patients had radiological evidence of advanced metastatic cancer performed within 4 weeks from treatment start and genomic analysis, usually ordered at admission, including Guardant 360 blood test and/or Foundation One and/or Tempus blood or tissue test and/or SEMA4 tissue test. […]
At baseline, history taking, physical examination, necessary laboratory, genomic and radiological evaluations were performed. Two largest perpendicular diameters of the radiologically significant lesions were measured including MRI contrast-enhanced lesions in the brain and spinal cord. […] Mixed response was determined when there was a CR or PR of some lesions and PD of the other lesions. […]

C=CC(=O)Nc1cc(Nc2nccc(-c3cn(C)c4ccccc34)n2)c(OC)cc1N(C)CCN(C)C [osimertinib]
Genes affected by AS / molecular response: status of mutated or amplified genes in follow-up blood genomic analysis [1]: elimination of the two EGFR mutations

NC(=O)C(CCC(=O)[O-])NC(=O)Cc1ccccc1.[Na+] (stereo not shown) [Iso-PG, phenylacetylisoglutaminate sodium]
solubility in water (Solubility in water): soluble in water

Cc1ccc(NC(=O)c2ccc(CN3CCN(C)CC3)cc2)cc1Nc1nccc(-c2cccnc2)n1 [imatinib]
response to prior targeted therapy [2]: failed to respond

CCc1cc2c(cc1N1CCC(N3CCOCC3)CC1)C(C)(C)c1[nH]c3cc(C#N)ccc3c1C2=O [alectinib]
Genes affected by AS / molecular response: status of mutated or amplified genes in follow-up blood genomic analysis [1]: Elimination of the ALK fusion

From patent US20230190694A1, “COMPOSITIONS FOR AND METHODS OF PRECISION CANCER TREATMENT” (priority 2021, published 2023)
